# In paper PMC2074469:
# Columns and labels:
# aromatase [1] = molecular target: T1, aromatase (Homo sapiens, UniProt P11511); assay: Serum oestradiol suppression in healthy post-menopausal female volunteers (trials 1 and 2); type: in vivo; details: for women with serum oestradiol below the limit of detection of the assay: limit of detection 3 pmol l-1; for mean BS oestradiol concentration 24 h after dosing on days 13 and 14, adjusted geometric mean / BS oestradiol AUC days 1-14, adjusted geometric mean: baseline-scaled; for BS oestradiol AUC days 1-14, adjusted geometric mean: normalised by time; for mean post-dose scaled oestradiol suppression compared with baseline: mean of 24 h after doses on days 13 and 14
# T1 construct: from tissue; host or cells: peripheral tissues of healthy post-menopausal female volunteers (in vivo; serum oestrogens measured)
# T1 sequence (P11511 1-503): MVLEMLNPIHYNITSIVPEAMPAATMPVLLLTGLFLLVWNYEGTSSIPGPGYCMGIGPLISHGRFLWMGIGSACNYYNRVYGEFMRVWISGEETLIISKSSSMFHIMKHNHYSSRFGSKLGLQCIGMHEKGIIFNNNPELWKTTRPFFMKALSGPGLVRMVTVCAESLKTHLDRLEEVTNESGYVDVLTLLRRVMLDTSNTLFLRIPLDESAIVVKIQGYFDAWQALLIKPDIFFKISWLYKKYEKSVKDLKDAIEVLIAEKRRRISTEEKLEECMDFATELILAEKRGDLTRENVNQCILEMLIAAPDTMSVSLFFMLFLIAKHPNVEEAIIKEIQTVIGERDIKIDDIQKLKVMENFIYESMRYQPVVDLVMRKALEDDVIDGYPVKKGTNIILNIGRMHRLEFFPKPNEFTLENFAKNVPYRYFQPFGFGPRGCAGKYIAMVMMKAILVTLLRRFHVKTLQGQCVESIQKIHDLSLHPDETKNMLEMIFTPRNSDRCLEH
# Experimental: (§1) Summary Two multiple-dose studies were conducted in healthy post-menopausal female volunteers to investigate the pharmacokinetics and effects on endocrinology of Arimidex (ZD1033). Volunteers in the first trial were dosed with 3 mg of ZD1033 daily over 10 days to assess the effects on endocrinology of ZD1033 and establish the pharmacokinetic profile. In the second trial volunteers received 14 daily doses of either 0.5 or 1.0 mg of ZD1033 to assess the pharmacokinetics of ZD1033 and the effects of low doses of ZD1033 on serum oestradiol concentrations. […] Keywords: Arimidex; aromatase inhibitor; oestrogen Breast cancer is the most common type of cancer in women, accounting for 10% of all female cancers. […] ZD1033 is an achiral benzyltriazole derivative, 2,2[5-(1 H- 12,4-triazol- I -ylmethyl)- 1,3-phenylene] bis (2- methyl-propriononitrile) (Figure 1). […] ZD1033 is currently being evaluated in identical phase III efficacy and tolerability studies vs megestrol acetate in post- menopausal women with advanced breast cancer in the USA and Europe. This paper describes two studies that investigated the pharmacokinetic profile, selectivity, tolerability and efficacy in oestradiol suppression of multiple doses of ZD1033. The objective of the studies was to determine the minimum dose required for maximal suppression of circulating oestradiol, while retaining selectivity for the aromatase enzyme. […] Methods The two trials were randomised, double-blind, placebo- controlled multiple-dose studies in healthy post-menopausal female volunteers aged between 45 and 62 years (inclusive). Both trials had the same entry criteria and were of similar design. In the first study (trial 1), a total of eight volunteers were given eight doses of 3 mg of ZD1033 over 10 days to assess tolerability, pharmacokinetics and effects on endocrinology. In the second study (trial 2) a total of 14 volunteers were given 0.5 and 1 mg doses of ZD1033 daily for 14 days to assess the tolerability, pharmacokinetics and effect on serum oestradiol concentrations only. […] The key inclusion criteria were: at least one intact ovary; cervical smear negative for malignancy within the previous 12 months; normal clinical laboratory parameters and; normal clinical examination. Key exclusion criteria were a history of malignant breast disease or previous hysterectomy as a result of malignancy. […] A dose of 3 mg ZD1033 or matching placebo was then given on the following 7 consecutive days (study days 4-10). […] Samples for assay of serum aldosterone, cortisol, 17- hydroxyprogesterone (17-HP), dehydroepiandrosterone sul- phate (DHEA-S), luteinising hormone (LH), FSH and adrenocorticotrophic hormone (ACTH) were collected before and 3 h after dosing on study days 1 and 10 of both treatment periods. Additional samples for cortisol assay were also collected before dosing on study days 3, 5, 7 and 9 in both treatment periods. An ACTH stimulation test was performed 3 h after the dose on study day 10.
# aromatase [2] = molecular target: T1, aromatase; assay: Serum oestrone suppression, trial 1 (3 mg of ZD1033 vs placebo); type: in vivo
# Experimental: as §1
# adrenal steroidogenesis = assay: Serum adrenal steroid concentrations, trial 1 (cortisol, aldosterone, 17-HP, androstenedione, DHEA-S); type: in vivo, human
# Experimental: as §1
# gonadotrophin release = assay: Serum pituitary hormones, trial 1 (ACTH, LH, FSH); type: in vivo, human; details: for scaled FSH: percentage change of scaled geometric mean relative to placebo / scaled LH: percentage change of scaled geometric mean relative to placebo: 3 mg
# Experimental: as §1
# [3] = system: steroid response to ACTH challenge; assay: ACTH stimulation test (synacthen), trial 1 study day 10; type: in vivo, human; details: 3 mg, 30 and 60 min after ACTH
# Experimental: (§2) Summary Two multiple-dose studies were conducted in healthy post-menopausal female volunteers to investigate the pharmacokinetics and effects on endocrinology of Arimidex (ZD1033). Volunteers in the first trial were dosed with 3 mg of ZD1033 daily over 10 days to assess the effects on endocrinology of ZD1033 and establish the pharmacokinetic profile. In the second trial volunteers received 14 daily doses of either 0.5 or 1.0 mg of ZD1033 to assess the pharmacokinetics of ZD1033 and the effects of low doses of ZD1033 on serum oestradiol concentrations. […] Keywords: Arimidex; aromatase inhibitor; oestrogen Breast cancer is the most common type of cancer in women, accounting for 10% of all female cancers. […] ZD1033 is an achiral benzyltriazole derivative, 2,2[5-(1 H- 12,4-triazol- I -ylmethyl)- 1,3-phenylene] bis (2- methyl-propriononitrile) (Figure 1). […] ZD1033 is currently being evaluated in identical phase III efficacy and tolerability studies vs megestrol acetate in post- menopausal women with advanced breast cancer in the USA and Europe. This paper describes two studies that investigated the pharmacokinetic profile, selectivity, tolerability and efficacy in oestradiol suppression of multiple doses of ZD1033. The objective of the studies was to determine the minimum dose required for maximal suppression of circulating oestradiol, while retaining selectivity for the aromatase enzyme. […]
# [4] = human, in vivo
# Experimental: as §2
# clinical = details: female, human, plasma, oral; for half-life: mean half-life
# aromatase [5] = molecular target: T1, aromatase; details: cited from earlier work
# [6] = cited from earlier work
# [7] = system: adrenal gland steroidogenesis; details: cited from earlier work
# [8] = 3 mg vs placebo, not statistically significant
structure (smiles),measurement,setting,value
"CC(C)(C#N)c1cc(Cn2cncn2)cc(C(C)(C)C#N)c1 [ZD1033, 2,2[5-(1 H-12,4-triazol-I -ylmethyl)-1,3-phenylene] bis (2-methyl-propriononitrile)]",reduction in serum oestradiol levels (to the limit of detection of the available assay),aromatase [1]; 1 mg daily p.o.,> 80%
same,reduction in concentration of serum oestradiol of baseline following multiple dosing,"aromatase [1]; all three doses (0.5, 1.0, 3 mg daily)",approximately 80%
same,minimal dose required for maximal suppression of oestradiol,aromatase [1]; from number of volunteers below assay limit of detection 24 h after last dose,1.0 mg
same,decrease of oestradiol concentration compared with placebo values,"aromatase [1]; trial 1, 3 mg daily days 4-10, by day 8, P = 0.004",approximately 80%
same,oestradiol suppression compared with placebo values,"aromatase [1]; trial 1, 3 mg, 24 h after the last dose",70%
same,reduction of mean serum oestradiol concentration compared with placebo,"aromatase [1]; trial 1, 3 mg, by 48 h after the first dose, P = 0.001",approximately 70%
same,recovery of serum oestradiol after first dose,"aromatase [1]; trial 1, single 3 mg dose, up to 72 h",no recovery apparent by 72 h
same,reduction of mean scaled oestradiol AUC 24 h after dosing on days 1-14,"aromatase [1]; trial 2, 0.5 mg daily",82%
same,women with serum oestradiol below the limit of detection of the assay,"aromatase [1]; trial 2, 0.5 mg daily, 24 h after the last dose",one out of six
same,mean post last dose oestradiol concentration,"aromatase [1]; trial 2, 0.5 mg daily, baseline mean 46 pmol l-1",5.9 pmol/L
same,"mean BS oestradiol concentration 24 h after dosing on days 13 and 14, adjusted geometric mean","aromatase [1]; trial 2, 0.5 mg daily",0.156
same,"BS oestradiol AUC days 1-14, adjusted geometric mean","aromatase [1]; trial 2, 0.5 mg daily",0.175
same,mean post-dose scaled oestradiol suppression compared with baseline,"aromatase [1]; trial 2, 0.5 mg daily",84%
same,reduction of mean scaled oestradiol AUC 24 h after dosing on days 1-14,"aromatase [1]; trial 2, 1.0 mg daily",84%
same,women with serum oestradiol below the limit of detection of the assay,"aromatase [1]; trial 2, 1 mg daily, 24 h after the last dose",five out of seven
same,mean post last dose oestradiol concentration,"aromatase [1]; trial 2, 1.0 mg daily, baseline mean 28 pmol l-1",3.2 pmol/L
same,"mean BS oestradiol concentration 24 h after dosing on days 13 and 14, adjusted geometric mean","aromatase [1]; trial 2, 1.0 mg daily",0.138
same,"BS oestradiol AUC days 1-14, adjusted geometric mean","aromatase [1]; trial 2, 1.0 mg daily",0.160
same,mean post-dose scaled oestradiol suppression compared with baseline,"aromatase [1]; trial 2, 1.0 mg daily",86%
same,duration of suppression of mean oestradiol concentrations,"aromatase [1]; trial 2, 0.5 and 1 mg daily for 14 days",remained suppressed from 3 h after the first dose to 6 days after the last dose
same,"treatment effect (ratio 0.5 - 1.0 mg), BS oestradiol AUC days 1-14","aromatase [1]; trial 2, 95% confidence (0.52, 2.30), P 0.794",1.09
same,"treatment effect (ratio 0.5 - 1.0 mg), mean BS oestradiol days 13 and 14","aromatase [1]; trial 2, 95% confidence (0.55, 2.33), P 0.713",1.13
same,recovery in oestradiol after the last dose,aromatase [1]; up to 144 h after the last dose,no recovery
same,scaled oestrone: percentage reduction in geometric mean relative to placebo,aromatase [2]; 96 h after dose on day 10,39.7%
same,scaled oestrone: percentage reduction in geometric mean relative to placebo,aromatase [2]; Day 2,36.2%
same,scaled oestrone: percentage reduction in geometric mean relative to placebo,aromatase [2]; Day 3,29.4%
same,scaled oestrone: percentage reduction in geometric mean relative to placebo,aromatase [2]; Day 4,34.6%
same,scaled oestrone: percentage reduction in geometric mean relative to placebo,aromatase [2]; Day 6,41.1%
same,scaled oestrone: percentage reduction in geometric mean relative to placebo,aromatase [2]; Day 8,34.8%
same,scaled oestrone: percentage reduction in geometric mean relative to placebo,aromatase [2]; Day 10,44.9%
same,maximal suppression of mean serum oestrone compared with placebo values,aromatase [2]; from study day 6 onwards,approximately 40%
same,recovery of serum oestrone after the last dose,aromatase [2]; up to 96 h after the last dose,no recovery apparent by 96 h after the last dose
same,alteration in mean serum concentration of DHEA-S relative to placebo,adrenal steroidogenesis; 3 mg,No clinically significant alterations
same,change in mean serum concentration of cortisol,adrenal steroidogenesis; 3 mg vs placebo,No statistically significant changes
same,change in mean serum concentration of 17-HP,adrenal steroidogenesis; [8],no consistent changes
same,change in mean serum concentration of aldosterone,adrenal steroidogenesis; [8],no consistent changes
same,change in mean serum concentration of androstenedione,adrenal steroidogenesis; [8],no consistent changes
same,scaled 17-HP: percentage change of scaled geometric mean relative to placebo,"adrenal steroidogenesis; 3 mg, Day 1, 3 h after dose",-26.9%
same,scaled aldosterone: percentage change of scaled geometric mean relative to placebo,"adrenal steroidogenesis; 3 mg, Day 1, 3 h after dose",-12.9%
same,scaled 17-HP: percentage change of scaled geometric mean relative to placebo,"adrenal steroidogenesis; 3 mg, Day 10, 3 h after dose",48.9%
same,scaled aldosterone: percentage change of scaled geometric mean relative to placebo,"adrenal steroidogenesis; 3 mg, Day 10, 3 h after dose",21.0%
same,scaled 17-HP: percentage change of scaled geometric mean relative to placebo,"adrenal steroidogenesis; 3 mg, Day 10, pre-dose",3.8%
same,scaled aldosterone: percentage change of scaled geometric mean relative to placebo,"adrenal steroidogenesis; 3 mg, Day 10, pre-dose",24.6%
same,"effect on ACTH, LH or FSH",gonadotrophin release; 3 mg vs placebo,None of the data suggested an effect
same,scaled FSH: percentage change of scaled geometric mean relative to placebo,"gonadotrophin release; Day 1, 3 h after dose",0.01%
same,scaled LH: percentage change of scaled geometric mean relative to placebo,"gonadotrophin release; Day 1, 3 h after dose",-9.5%
same,scaled FSH: percentage change of scaled geometric mean relative to placebo,"gonadotrophin release; Day 10, 3 h after dose",-3.4%
same,scaled LH: percentage change of scaled geometric mean relative to placebo,"gonadotrophin release; Day 10, 3 h after dose",12.2%
same,scaled FSH: percentage change of scaled geometric mean relative to placebo,"gonadotrophin release; Day 10, pre-dose",1.54%
same,scaled LH: percentage change of scaled geometric mean relative to placebo,"gonadotrophin release; Day 10, pre-dose",-9.3%
same,difference of 17-HP after ACTH stimulation from values obtained on placebo,[3],up to 12%
same,difference of cortisol after ACTH stimulation from values obtained on placebo,[3],up to 12%
same,"changes in blood pressure, pulse rate or ECG",[4],no evidence of changes
same,Cmax,clinical; 0.5 mg,5.97 ng/mL
same,Tmax,clinical; 0.5 mg,2 h
same,half-life,clinical; 0.5 mg,45.7 h
same,Cmax,clinical; 1 mg,13.7 ng/mL
same,Tmax,clinical; 1 mg,2 h
same,half-life,clinical; 1 mg,40.6 h
same,Tmax,clinical; 3 mg,3 h
same,half-life,"clinical; 3 mg, after the first dose of 3 mg",50.7 h
same,half-life,"clinical; 3 mg, after the last dose of 3 mg",45.4 h
C[C@]12CCC(=O)C(O)=C1CC[C@@H]1[C@@H]2CC[C@]2(C)C(=O)CC[C@@H]12 [formestane],oestradiol suppression,aromatase [5]; in vivo,49- 64%
same,adverse reactions,"[6]; 250 mg i.m. once every 2 weeks, ref Hoffken et al., 1993",injection site reactions
CCC1(c2ccc(N)cc2)CCC(=O)NC1=O (centres unmarked) [aminoglutethimide],selectivity for the aromatase enzyme,"[7]; 250 mg q.i.d., also inhibits adrenal gland steroidogenesis, ref Lonning and Johannessen, 1991",non-selective
same,toxicity,"[6]; ref Lonning and Johannessen, 1991",marked toxicity
N#Cc1ccc(C(c2ccc(C#N)cc2)n2cncn2)cc1 [letrozole],reduction in oestradiol levels,"aromatase [5]; ref Iveson et al., 1993",up to 86%
same,selectivity: interference with adrenal steroidogenesis,[7]; in vivo,no reports of letrozole interfering
